Reference: PubChem BioAssay AID2060503 (Molecular Pharmacology Branch, DTP, NCI, 2025)
Values joined by “and” are separate entries in the source; they are usually repeats but may differ in a detail not shown here. Equal entries are not always repeated.

System: 817829-284-R-J1-PDC complex spheroids, viability
Test: Anticancer human tumor 817829-284-R-J1-PDC patient-derived colon adenocarcinoma cell line growth inhibition [GQUAD]
Details: for viability, T/C: stronger effect = lower value
Description: DNA G-quadruplex Stabilizer Agents in Combinations in Complex Spheroids
A high-throughput screen of multi-cell type tumor spheroids was designed to identify active combinations of DNA G-quadruplex stabilizer agents and targeted small molecules. Complex spheroids include a stromal component modeled by human endothelial cells (HUVEC) and fibroblasts modeled by human mesenchymal stem cells (MSCs). The concentration ranges selected for each drug and investigational agent were based upon clinically achievable concentrations if the clinical Cmax of the agent was known.
Compounds. The drugs and investigational agents: pidnarulex (CX-5461; NSC782164), APTO-253 (NSC789042), BRACO-19 (NSC847499), peposertib (NSC802822), ceralasertib (NSC780249), elimusertib (NSC800525), camonsertib (NSC841442), AZD-1390 (NSC803789), olaparib (NSC753686), talazoparib (NSC767125), ART-558 (NSC835418), sotorasib (NSC818433), MRTX-1133 (NSC836407), SN-38 (NSC673596), topotecan (NSC609699), etoposide (NSC141540), doxorubicin (NSC123127), gemcitabine (NSC613327), 5-fluorouracil (NSC19893), paclitaxel (NSC125973), vemurafenib (NSC761431), panobinostat (NSC761190), R-306465 (JNJ-16241199; NSC773264), adavosertib (NSC754352), TP-3654 (NSC805149), carboplatin (NSC241240), KSQ-4279 (NSC840948), and staurosporine (NSC755774) were obtained from the National Cancer Institute (NCI) Developmental Therapeutics Program Chemical Repository (34). The FDA-approved anticancer drug set is available from the NCI Developmental Therapeutics Program. […] The stock solutions were prepared in dimethyl sulfoxide (DMSO, Sigma-Aldrich, St. Louis, MO, cat. D2650) at 800-fold the tested concentration and stored at -70 degrees C prior to their use. All drugs and investigational agents were tested over a range starting from a high concentration at or near the clinical Cmax and decreasing in half-log increments. If the clinical Cmax for an agent had not been determined, the highest concentration tested was 10 microM.
2.3 Cell Culture. All cells were maintained in an incubator at 37 degrees C and 5% CO2 with 95% humidity. The PDC lines were cultured according to standard operating procedures established by the NCI PDMR. All PDCs were thawed and cultured in Matrigel-coated flasks prepared with a working solution of 1X Ham's F-12 nutrient mix, without supplementation (Invitrogen, cat. 11765054), 100 U/mL penicillin-streptomycin (Invitrogen, cat. 15140122), and 2.5% Matrigel (Corning Inc., cat. 354248) for the first three passages. The 857933-349-R-J2-PDC line was cultured in 6C/Colon 1B media, which includes advanced DMEM/F-12 (Thermo Fisher Scientific, cat. 12634028), 10 mM HEPES (Thermo Fisher Scientific, cat. 15630080), 1X GlutaMAX supplement (Thermo Fisher Scientific, cat. 35050061), 0.1 mg/mL primocin (InvivoGen, cat. ant-pm-2), 10% defined fetal bovine serum, heat inactivated (HyClone Laboratories Inc., cat. SH30070.03HI), 50% L-WRN conditioned media (ATCC, cat. CRL-3276), 1.25 mM N-Acetyl-L-cysteine (Sigma-Aldrich, cat. A9165), 10 mM nicotinamide (Sigma-Aldrich, cat. N0636), 1X B-27 supplement (Thermo Fisher Scientific, cat. 17504044), 1X N-2 supplement (Thermo Fisher Scientific, cat. 17502048), 10 microM Y-27632 dihydrochloride (Tocris Bioscience, cat. 1254), and 50 ng/mL human EGF recombinant protein (Thermo Fisher Scientific, cat. PHG0311). The 485176-168-R4-J1-PDC line was cultured in Panc media, which includes all 6C/Colon 1B media components plus 100 ng/mL human FGF-10 (Thermo Fisher Scientific, cat. 100-26), 500 nM SB-431542 (Selleckchem, cat. S1067), and gastrin (Tocris, cat. 3006).
[…]

[1] = curve of first compound, second compound 0.0316 µM
[2] = curve of first compound, second compound 0.1 µM
[3] = curve of first compound, second compound 0.316 µM
[4] = curve of first compound, second compound 1 µM
[5] = curve of first compound, second compound 3.16 µM
[6] = curve of first compound, second compound 10 µM
[7] = second compound 0.0316 µM, first compound 0.0316 µM
[8] = second compound 0.0316 µM, first compound 0.1 µM
[9] = second compound 0.0316 µM, first compound 0.316 µM
[10] = second compound 0.0316 µM, first compound 1 µM
[11] = second compound 0.0316 µM, first compound 3.16 µM
[12] = second compound 0.0316 µM, first compound 10 µM
[13] = second compound 0.1 µM, first compound 0.0316 µM
[14] = second compound 0.1 µM, first compound 0.1 µM
[15] = second compound 0.1 µM, first compound 0.316 µM
[16] = second compound 0.1 µM, first compound 1 µM
[17] = second compound 0.1 µM, first compound 3.16 µM
[18] = second compound 0.1 µM, first compound 10 µM
[19] = second compound 0.316 µM, first compound 0.0316 µM
[20] = second compound 0.316 µM, first compound 0.1 µM
[21] = second compound 0.316 µM, first compound 0.316 µM
[22] = second compound 0.316 µM, first compound 1 µM
[23] = second compound 0.316 µM, first compound 3.16 µM
[24] = second compound 0.316 µM, first compound 10 µM
[25] = second compound 1 µM, first compound 0.0316 µM
[26] = second compound 1 µM, first compound 0.1 µM
[27] = second compound 1 µM, first compound 0.316 µM
[28] = second compound 1 µM, first compound 1 µM
[29] = second compound 1 µM, first compound 3.16 µM
[30] = second compound 1 µM, first compound 10 µM
[31] = second compound 3.16 µM, first compound 0.0316 µM
[32] = second compound 3.16 µM, first compound 0.1 µM
[33] = second compound 3.16 µM, first compound 0.316 µM
[34] = second compound 3.16 µM, first compound 1 µM
[35] = second compound 3.16 µM, first compound 3.16 µM
[36] = second compound 3.16 µM, first compound 10 µM
[37] = second compound 10 µM, first compound 0.0316 µM
[38] = second compound 10 µM, first compound 0.1 µM
[39] = second compound 10 µM, first compound 0.316 µM
[40] = second compound 10 µM, first compound 1 µM
[41] = second compound 10 µM, first compound 3.16 µM
[42] = second compound 10 µM, first compound 10 µM
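Further: spheroids exposed to agents for 7 days before readout.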
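Wherever viability, T/C is given: percent viability relative to DMSO vehicle control taken as 100%.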

C#Cc1c(F)ccc2cc(O)cc(-c3ncc4c(N5CC6CCC(C5)N6)nc(OCC56CCCN5CC(F)C6)nc4c3F)c12 (stereo not given) + Cc1[nH]c2ccc(F)cc2c1-c1nc2c3cccnc3c3ncccc3c2[nH]1
IC50 [1]: > 10 µM
IC50 [2]: > 10 µM
IC50 [3]: > 10 µM
IC50 [4]: 5.6 µM
IC50 [5]: < 0.0316 µM
IC50 [6]: < 0.0316 µM
viability, T/C [7]: 96.1%
viability, T/C [8]: 95%
viability, T/C [9]: 96.2%
viability, T/C [10]: 90.4%
viability, T/C [11]: 98%
viability, T/C [12]: 118%
viability, T/C [13]: 97.6%
viability, T/C [14]: 108%
viability, T/C [15]: 88.2%
viability, T/C [16]: 102%
viability, T/C [17]: 91.1%
viability, T/C [18]: 108%
viability, T/C [19]: 91%
viability, T/C [20]: 96.1%
viability, T/C [21]: 99.7%
viability, T/C [22]: 86.6%
viability, T/C [23]: 98.8%
viability, T/C [24]: 81.1%
viability, T/C [25]: 102%
viability, T/C [26]: 90.4%
viability, T/C [27]: 103%
viability, T/C [28]: 93%
viability, T/C [29]: 94.5%
viability, T/C [30]: 4.87%
viability, T/C [31]: 3.89%
viability, T/C [32]: 4.3%
viability, T/C [33]: 3.9%
viability, T/C [34]: 3.3%
viability, T/C [35]: 1.62%
viability, T/C [36]: 0.11%
viability, T/C [37]: 3%
viability, T/C [38]: 12.8%
viability, T/C [39]: 3.04%
viability, T/C [40]: 2.02%
viability, T/C [41]: 2.19%
viability, T/C [42]: 0.17%

C=CC(=O)N1CCN(c2nc(=O)n(-c3c(C)ccnc3C(C)C)c3nc(-c4c(O)cccc4F)c(F)cc23)C(C)C1 (stereo not given) + Cc1[nH]c2ccc(F)cc2c1-c1nc2c3cccnc3c3ncccc3c2[nH]1
IC50 [1]: > 10 µM
IC50 [2]: > 10 µM
IC50 [3]: > 10 µM
IC50 [4]: > 10 µM
IC50 [5]: 3.26 µM
IC50 [6]: < 0.0316 µM
viability, T/C [7]: 106%
viability, T/C [8]: 81%
viability, T/C [9]: 109%
viability, T/C [10]: 74.4%
viability, T/C [11]: 106%
viability, T/C [12]: 97.5%
viability, T/C [13]: 87.2%
viability, T/C [14]: 90.1%
viability, T/C [15]: 88.5%
viability, T/C [16]: 91.2%
viability, T/C [17]: 108%
viability, T/C [18]: 92.8%
viability, T/C [19]: 84.3%
viability, T/C [20]: 102%
viability, T/C [21]: 104%
viability, T/C [22]: 101%
viability, T/C [23]: 102%
viability, T/C [24]: 104%
viability, T/C [25]: 82.1%
viability, T/C [26]: 97%
viability, T/C [27]: 93.6%
viability, T/C [28]: 97.6%
viability, T/C [29]: 98.2%
viability, T/C [30]: 79.8%
viability, T/C [31]: 102%
viability, T/C [32]: 99.3%
viability, T/C [33]: 75.7%
viability, T/C [34]: 68.2%
viability, T/C [35]: 51.7%
viability, T/C [36]: 32.4%
viability, T/C [37]: 11.3%
viability, T/C [38]: 18.4%
viability, T/C [39]: 44.3%
viability, T/C [40]: 15.1%
viability, T/C [41]: 11.6%
viability, T/C [42]: 17.1%

COc1ncnc(C2CC2)c1-c1ncc2cnn(Cc3ccc(-c4nc(C(F)(F)F)cn4C(C)C)cc3)c2n1 + Cc1cnc(CNC(=O)c2c(=O)c3ccc(N4CCCN(C)CC4)nc3n3c2sc2ccccc23)cn1
IC50 [1]: > 10 µM
IC50 [2]: < 0.0316 µM
IC50 [3]: < 0.0316 µM
IC50 [4]: < 0.0316 µM
IC50 [5]: < 0.0316 µM
IC50 [6]: < 0.0316 µM
viability, T/C [7]: 63.5%
viability, T/C [8]: 51.9%
viability, T/C [9]: 55.5%
viability, T/C [10]: 43.7%
viability, T/C [11]: 66%
viability, T/C [12]: 64.1%
viability, T/C [13]: 28.1%
viability, T/C [14]: 31.1%
viability, T/C [15]: 28.2%
viability, T/C [16]: 29.5%
viability, T/C [17]: 28.4%
viability, T/C [18]: 33.2%
viability, T/C [19]: 19.2%
viability, T/C [20]: 26.4%
viability, T/C [21]: 20.8%
viability, T/C [22]: 25.4%
viability, T/C [23]: 25.6%
viability, T/C [24]: 22.8%
viability, T/C [25]: 19.3%
viability, T/C [26]: 22.8%
viability, T/C [27]: 21.1%
viability, T/C [28]: 20.8%
viability, T/C [29]: 22.1%
viability, T/C [30]: 18%
viability, T/C [31]: 16.9%
viability, T/C [32]: 18.9%
viability, T/C [33]: 17.7%
viability, T/C [34]: 19.4%
viability, T/C [35]: 21.6%
viability, T/C [36]: 18.1%
viability, T/C [37]: 0.12%
viability, T/C [38]: 0.17%
viability, T/C [39]: 0.18%
viability, T/C [40]: 0.16%
viability, T/C [41]: 0.21%
viability, T/C [42]: 0.22%

C#Cc1c(F)ccc2cc(O)cc(-c3ncc4c(N5CC6CCC(C5)N6)nc(OCC56CCCN5CC(F)C6)nc4c3F)c12 (stereo not given)
viability, T/C (compound 0.0316 µM): 103% and 97.4% and 94.3%
viability, T/C (compound 0.1 µM): 88.4% and 96.9% and 109%
viability, T/C (compound 0.316 µM): 99.2% and 102% and 103%
viability, T/C (compound 1 µM): 84.3% and 102% and 93.9%
viability, T/C (compound 3.16 µM): 110% and 95.8% and 102%
viability, T/C (compound 10 µM): 114% and 104% and 131%
IC50 (curve of compound): > 10 µM

Cc1cccc(N(C)C(=O)C2C(O)CCN2c2nc(C)cc(C(F)(F)F)c2C#N)c1 (stereo not given)
viability, T/C (compound 0.0316 µM): 94.3% and 102% and 95.3%
viability, T/C (compound 0.1 µM): 97.8% and 81.6% and 93.5%
viability, T/C (compound 0.316 µM): 92.5% and 107% and 96.8%
viability, T/C (compound 1 µM): 88.1% and 99% and 82.6%
viability, T/C (compound 3.16 µM): 92.4% and 88.4% and 96.7%
viability, T/C (compound 10 µM): 96.7% and 83.4% and 98.1%
IC50 (curve of compound): > 10 µM
